Columns and labels:
Human TLR7/8 = system: T1, Human TLR7/8; experiment: Human PBMC cell-based assay, R848 stimulus, IL-6 ELISA; settings: Hu PBMC; ligand R848; analyte IL-6
T1 construct: IC50; other: Hu PBMC; ligand RNA-Ig; analyte IL-6; analyte TNFα; ligand R848; IC50 against the RNA-Ig TLR7/8 stimulus; cytokine responses to RNA-Ig complexes in vitro; potency against the RNA-Ig TLR7/8 stimulus versus HCQ
Method: (§1) Human peripheral blood mononuclear cells (PBMC) were isolated from freshly-drawn heparinized (10 USP units/ml, Hospira, Lakeforest, Ill.) healthy donor whole blood by density gradient (Histopaque® 1077, Sigma, Inc., St. Louis, Mo.). Briefly, 25 ml blood was diluted with 15 ml PBS (without Ca^2+, Mg^2+) in a 50 ml conical tube, and 12 ml Histopaque was underlaid using a spinal needle. Tubes were centrifuged for 45 minutes at 1200 rpm (350×g), and PBMC were collected from the buffy coat. Cells were then washed twice in PBS, and red blood cells were lysed by suspension in 5 ml ammonium chloride solution (1× Red Blood Cell Lysis Buffer, eBioscience) for 5 minutes at room temperature. […]
(§2) Antagonist compounds solubilized and serial diluted in 100% DMSO were added in triplicate to cells to yield a final concentration of 0.1% DMSO (v/v). […] Cell culture supernatants were collected, and levels of various human cytokines were assessed as indicated by standard ELISA procedure according to the manufacturer's recommended protocol (BD Biosciences, Inc., San Diego, Calif.).

Human TLR9 = molecular target: T2, Human TLR9 (Homo sapiens, UniProt Q9NR96); experiment: Human PBMC cell-based assay, CpG-ODN stimulus, IL-6 ELISA; design: endogenous in cells; host or cells: primary human PBMC from healthy donor blood; settings: Hu PBMC; ligand CpG-ODN; analyte IL-6
T2 sequence (Q9NR96 26-1032): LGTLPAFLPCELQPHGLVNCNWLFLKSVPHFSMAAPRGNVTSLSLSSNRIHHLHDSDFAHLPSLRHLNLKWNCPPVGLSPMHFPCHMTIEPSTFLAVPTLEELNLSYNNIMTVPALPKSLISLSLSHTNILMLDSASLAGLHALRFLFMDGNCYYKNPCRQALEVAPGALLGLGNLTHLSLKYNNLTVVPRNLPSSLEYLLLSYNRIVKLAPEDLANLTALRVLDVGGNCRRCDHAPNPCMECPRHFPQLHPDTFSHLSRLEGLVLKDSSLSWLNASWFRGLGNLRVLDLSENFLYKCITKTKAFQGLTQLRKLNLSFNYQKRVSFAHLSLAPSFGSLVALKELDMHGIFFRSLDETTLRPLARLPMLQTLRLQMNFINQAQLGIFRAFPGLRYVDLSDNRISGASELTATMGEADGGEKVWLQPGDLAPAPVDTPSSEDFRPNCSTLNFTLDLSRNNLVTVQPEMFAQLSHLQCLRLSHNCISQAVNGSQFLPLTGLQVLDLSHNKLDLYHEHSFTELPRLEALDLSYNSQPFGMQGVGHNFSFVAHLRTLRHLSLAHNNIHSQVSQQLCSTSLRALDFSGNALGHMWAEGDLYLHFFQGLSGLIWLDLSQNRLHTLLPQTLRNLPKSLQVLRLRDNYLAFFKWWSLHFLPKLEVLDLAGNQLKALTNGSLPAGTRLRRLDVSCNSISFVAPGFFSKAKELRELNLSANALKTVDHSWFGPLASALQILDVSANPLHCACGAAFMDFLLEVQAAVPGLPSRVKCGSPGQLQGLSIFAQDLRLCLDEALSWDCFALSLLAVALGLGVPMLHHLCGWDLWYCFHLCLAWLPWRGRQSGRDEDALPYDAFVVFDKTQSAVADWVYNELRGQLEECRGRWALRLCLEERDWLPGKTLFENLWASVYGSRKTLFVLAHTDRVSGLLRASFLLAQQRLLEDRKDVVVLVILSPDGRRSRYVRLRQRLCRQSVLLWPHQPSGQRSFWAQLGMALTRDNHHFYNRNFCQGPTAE
Method: as §1, §2

In the case of `COc1ccc([C@@H]2C[C@H](C(F)(F)F)n3nc(-c4ccc(C(=O)N5CCNCC5)cc4)cc3N2)cc1OC` [ER-892887, (4-((5S,7R)-5-(3,4-dimethoxyphenyl)-7-(trifluoromethyl)-4,5,6,7-tetrahydropyrazolo[1,5-a]pyrimidin-2-yl)phenyl)(piperazin-1-yl)methanone], the IC50 (Human TLR7/8) is reported as 16 nM and the IC50 (Human TLR9) is reported as > 10000 nM.
